Assay results as given in ChEMBL document CHEMBL5725614, “Histone demethylase inhibitors” (2018).

assay: PHF8 Assay: The ability of test compounds to inhibit the activity of PHF8 was determined in 384-well plate format under the following reaction conditions: 3 nM PHF8, 200 nM H3K9me1-biotin labeled peptide (Anaspec cat #64358), 0.5 μM alpha-ketoglutaric acid in assay buffer of 50 mM HEPES, pH7.3, 0.005% Brij35, 0.5 mM TCEP, 0.2 mg/ml BSA, 50 μM sodium L-ascorbate, and 5 μM ammonium iron(II) sulfate. Reaction product was determined quantitatively by TR-FRET after the addition of detection reagent Phycolink Streptavidin-allophycocyanin (Prozyme) and Europium-anti-unmodified-histone H3 lysine 9/lysine27 (H3K9/K27) antibody (PerkinElmer) in the presence of 5 mM EDTA in LANCE detection buffer (PerkinElmer) at a final concentration of 25 nM and 0.5 nM, respectively.The assay reaction was initiated by the following: 2 μl of the mixture of 600 nM H3K9me1-biotin labeled peptide and 1.5 μM alpha-ketoglutaric acid with 2 μl of 11-point serial diluted inhibitor in 3% DMSO were added to each well of the plate, followed by the addition of 2 μl of 9 nM PHF8 to initiate the reaction. The reaction mixture was incubated at room temperature for 15 minutes, and terminated by the addition of 6 μl of 5 mM EDTA in LANCE detection buffer containing 50 nM Phycolink Streptavidin-allophycocyanin and 1 nM Europium-anti-unmodified H3K9/K27 antibody. Plates were read by EnVision Multilabel Reader in TR-FRET mode (excitation at 320 nm, emission at 615 nm and 665 nm) after 1 hour incubation at room temperature. A ratio was calculated (665/615) for each well and fitted to determine inhibition constant (IC50).

Row | SMILES | IC50
1 | Cn1cnc(-c2cc3[nH]nnc3cn2)c1-c1ccc(F)cc1 | in the range around 5500 nM
2 | Fc1[nH]nnc1-c1ccnc(-c2cn(Cc3cccc(Cl)c3Cl)cn2)c1 | in the range around 550 nM
3 | c1ccc(-c2ccccc2CCn2cnc(-c3cc(-c4c[nH]nn4)ccn3)c2)cc1 | in the range around 5500 nM
4 | c1ccc(COc2ccccc2CCn2cnc(-c3cc(-c4c[nH]nn4)ccn3)c2)cc1 | in the range around 5500 nM
5 | N#Cc1[nH]nnc1-c1ccnc(-c2cn(Cc3cccc(Cl)c3Cl)cn2)c1 | in the range around 5500 nM
6 | Cn1cnc(-c2cc(-c3nn[nH]c3F)ccn2)c1-c1ccc(F)cc1OCC1CC1 | in the range around 5500 nM
7 | CC(c1ccccc1)n1cnc(-c2cc(-c3c[nH]nn3)ccn2)c1 (stereo not drawn) | in the range around 550 nM
8 | Clc1cccc(-n2cnc(-c3cc4[nH]nnc4cn3)c2)c1 | in the range around 5500 nM
9 | CCOc1ccccc1CCn1cnc(-c2cc(-c3c[nH]nn3)ccn2)c1 | in the range around 550 nM
10 | Clc1cccc(Cn2cnc(-c3cc4[nH]nnc4cn3)c2)c1 | in the range around 5500 nM
11 | CC(Cc1ccccc1)n1cnc(-c2cc(-c3c[nH]nn3)ccn2)c1 (stereo not drawn) | in the range around 5500 nM
12 | c1ccc(Oc2ccccc2CCn2cnc(-c3cc(-c4c[nH]nn4)ccn3)c2)cc1 | in the range around 5500 nM
13 | COc1cc(-c2c(-c3cc(-c4c[nH]nn4)ccn3)ncn2C)ccc1F | in the range around 550 nM
14 | Clc1cc(Cl)cc(-n2cnc(-c3cc4[nH]nnc4cn3)c2)c1 | in the range around 5500 nM
15 | c1ccc(OCC2CC2)c(CCn2cnc(-c3cc(-c4c[nH]nn4)ccn3)c2)c1 | in the range around 550 nM
16 | c1ccc2c(CCn3cnc(-c4cc(-c5c[nH]nn5)ccn4)c3)cccc2c1 | in the range around 550 nM
17 | Clc1ccc(Cn2cnc(-c3cc4[nH]nnc4cn3)c2)cc1Cl | in the range around 5500 nM
18 | Clc1ccccc1Cn1cnc(-c2cc(-c3cn[nH]n3)ccn2)c1Br | in the range around 550 nM
19 | Fc1c(Cn2cnc(-c3cc(-c4c[nH]nn4)ccn3)c2)cccc1OC(F)(F)F | in the range around 5500 nM
20 | Clc1[nH]nnc1-c1ccnc(-c2cn(CCc3cccc4ccccc34)cn2)c1 | in the range around 5500 nM
21 | c1ccc2c(c1)CCCC2Cn1cnc(-c2cc(-c3c[nH]nn3)ccn2)c1 (stereo not drawn) | in the range around 550 nM
22 | Clc1ccccc1Cn1cnc(-c2cc3[nH]nnc3cn2)c1 | in the range around 5500 nM
23 | N#Cc1[nH]nnc1-c1ccnc(-c2cn(Cc3ccccc3Cl)cn2)c1 | in the range around 5500 nM

Row | SMILES | IC50
24 | Clc1ccc(Cn2cnc(-c3cc4[nH]nnc4cn3)c2)cc1 | in the range around 5500 nM
25 | FC(F)(F)c1cccc(Cn2cnc(-c3cc(-c4c[nH]nn4)ccn3)c2)c1Cl | in the range around 550 nM
26 | FC(F)(F)COc1ccccc1CCn1cnc(-c2cc(-c3c[nH]nn3)ccn2)c1 | in the range around 550 nM
27 | Clc1cccc(Cn2cnc(-c3cc(-c4nn[nH]c4I)ccn3)c2)c1Cl | in the range around 550 nM
28 | COc1cccc(Cn2cnc(-c3cc(-c4c[nH]nn4)ccn3)c2)c1F | in the range around 550 nM
29 | Clc1cccc(Cn2cnc(-c3cc(-c4c[nH]nn4)ccn3)c2)c1Cl | in the range around 550 nM
30 | Cn1cnc(-c2cc(-c3c[nH]nn3)ccn2)c1-c1ccc(F)cc1OCC1CC1 | in the range around 5500 nM
31 | Cc1cccc(Cn2cnc(-c3cc(-c4c[nH]nn4)ccn3)c2)c1F | in the range around 550 nM
32 | Clc1ccccc1-n1cnc(-c2cc3[nH]nnc3cn2)c1 | in the range around 5500 nM
33 | Cn1cnc(-c2cc(-c3c[nH]nn3)ccn2)c1-c1ccc(F)cc1 | in the range around 550 nM
34 | CC(C)(Cn1cnc(-c2cc(-c3c[nH]nn3)ccn2)c1)c1ccccc1Cl | in the range around 550 nM
35 | Clc1ccc(-n2cnc(-c3cc4[nH]nnc4cn3)c2)cc1 | in the range around 5500 nM
36 | FC(F)(F)c1ccccc1CCn1cnc(-c2cc(-c3c[nH]nn3)ccn2)c1 | in the range around 550 nM
37 | N#Cc1[nH]nnc1-c1ccnc(-c2cn(CCc3cccc4ccccc34)cn2)c1 | in the range around 550 nM
38 | COc1ccccc1CCn1cnc(-c2cc(-c3c[nH]nn3)ccn2)c1 | in the range around 550 nM
39 | CCOc1cc(-c2c(-c3cc(-c4c[nH]nn4)ccn3)ncn2C)ccc1F | in the range around 5500 nM
40 | c1nc(-c2cn(CC3CC3)cn2)cc2[nH]nnc12 | in the range around 5500 nM
41 | Clc1ccccc1Cn1cnc(-c2cc(-c3c[nH]nn3)ccn2)c1 | in the range around 550 nM
42 | FC(F)(F)Oc1ccccc1CCn1cnc(-c2cc(-c3c[nH]nn3)ccn2)c1 | in the range around 550 nM
43 | N#Cc1[nH]nnc1-c1ccnc(-c2cn(CC3CCCc4ccccc43)cn2)c1 (stereo not drawn) | in the range around 550 nM
44 | c1ccc(Cn2cnc(-c3cc4[nH]nnc4cn3)c2)cc1 | in the range around 550 nM
45 | Fc1[nH]nnc1-c1ccnc(-c2cn(CCc3cccc4ccccc34)cn2)c1 | in the range around 550 nM

assay: FBXL11 Assay: The ability of test compounds to inhibit the activity of FBXL11 was determined in 384-well plate format under the following reaction conditions: 0.15 nM FBXL11, 30 nM H3K36me2-biotin labeled peptide (Anaspec cat #64442), 0.2 μM alpha-ketoglutaric acid in assay buffer of 50 mM HEPES, pH7.3, 0.005% Brij35, 0.5 mM TCEP, 0.2 mg/ml BSA, 50 μM sodium L-ascorbate, 5 μM ammonium iron(II) sulfate. Reaction product is determined quantitatively by AlphaScreen detection after the addition of detection reagents anti-H3K36me1 antibody, AlphaScreen® Streptavidin-coated Donor beads, and AlphaScreen® Protein A Acceptor beads in 50 mM HEPES, pH7.3, 10 mM NaCl, 0.005% Brij35, 5 mM EDTA, 2 mg/ml BSA to final 10 μg/ml beads.The assay reaction was initiated by the following: 3 μl of the mixture of 90 nM H3K36me2-biotin labeled peptide and 0.6 μM alpha-ketoglutaric acid with 3 μl of 11-point serial diluted inhibitor in 3% DMSO are added to each well of 384 well Proxiplate (Perkin Elmer), followed by the addition of 3 μl of 0.45 nM FBXL11 to initiate the reaction. The reaction mixture is incubated at room temperature for 1 hour, and terminated by the addition of 3 μl of appropriate dilution of anti H3K36me1 antibody in 50 mM HEPES, pH7.3, 10 mM NaCl, 0.005% Brij35, 5 mM EDTA, 2 mg/ml BSA. Plates will then incubated at room temperature for 40 minutes, followed by addition of 3 ul of 50 μg/ml AlphaScreen® Streptavidin-coated Donor beads and AlphaScreen® Protein A Acceptor beads in 50 mM HEPES, pH7.3, 10 mM NaCl, 0.005% Brij35, 5 mM EDTA, 2 mg/ml BSA. Plates will then be read by EnVision Multilabel Reader in AlphaScreen mode after minimum 2 hour incubation at room temperature. The AlphaScreen signal for each well is used to determine inhibition constant (IC50).

Row | SMILES | IC50
46 | Clc1cccc(-n2cnc(-c3cc4[nH]nnc4cn3)c2)c1 | in the range around 550 nM
47 | CCOc1cc(-c2c(-c3cc(-c4c[nH]nn4)ccn3)ncn2C)ccc1F | in the range around 550 nM
48 | Clc1ccccc1Cn1cnc(-c2cc(-c3c[nH]nn3)ccn2)c1 | in the range around 550 nM
